Laboratory results: US6319910A, “Method for inhibiting cyclooxygenase-2 and tumor necrosis factor alpha” (Hospital for Joint Diseases, priority 1998, dated 2001)
Entries after “also recorded” stand apart in the source; their conditions may differ. Read-outs that look alike come from different tables or passages of the source.

Tests used:
[1] = tested on: RAW 264.7 cells; test: PGE2 production/accumulation in LPS-stimulated RAW 264.7 cells; format: cell-based, murine; conditions: for activation at 40 µg/mL: Mus musculus, RAW264.7, 16 h, printed in parentheses = increase
Protocol: (§1) Murine macrophages (RAW 263.7 cells) which were grown in Dulbecco's modified eagle medium (DMEM) containing 10% fetal bovine serum, 2 mM glutamine, 50 U/ml penicillin and 50 μg/ml streptomycin, were stimulated with 100 ng/ml LPS to induce both NOS and COX-2 at 16 hr. […] The data presented in FIG. 1 represents mean±SD as examined by T test were n=3.
(§2) The effects of CMTs 1, 2, 3, 5 and 8 on PGE2 and NO accumulation in RAW 264.7 cells were further evaluated as described above for CMT-3. […]

[2] = tested on: RAW 264.7 cells; test: Nitrite (NO) production/accumulation in LPS-stimulated RAW 264.7 cells; format: cell-based, murine; conditions: LPS 100 ng/ml, 16 hours
Protocol: as §1, §2

[3] = tested on: bovine chondrocytes; test: PGE2 production in LPS stimulated bovine chondrocytes (radioimmunoassay); format: cell-based; conditions: FIGS. 3 and 9, words; for Effect on PGE2 production: LPS 100 μg/ml, 72 hrs
Protocol: After 48 hours the medium was changed and the cells were incubated with CMT-3 or N-monomethyl arginine (NMMA) for 2 hours before stimulating them with 100 μg/ml LPS. DMSO was used as a carrier for the modulators and the DMSO concentration was maintained (<0.01% v/v) in the cultures. Equivalent amounts of DMSO was also added to the control cultures. The levels of COX-2 dependent PGE2 release was assayed after 72 hrs by radioimmunoassay. […] The data represents mean±SD which was evaluated by T test where n=3.

[4] = tested on: bovine chondrocytes; test: Nitrite (NO) production in LPS stimulated bovine chondrocytes; format: cell-based; conditions: FIGS. 3 and 9; LPS 100 μg/ml; words
[5] = tested on: OA-affected cartilage; test: Spontaneous PGE2 release by OA-affected cartilage (ex vivo organ culture); format: cell-based, human; conditions: for Effect on PGE2 production: human OA-affected cartilage, words
Protocol: (§3) Human osteoarthritis affected cartilage spontaneously release nitric oxide (NO) and PGE2 in the medium as previously reported (Amin et al, 1995a; 1997a). The OA-organ cultures were set up as described (Amin et al, 1995a; 1997a). Briefly, total knee articular cartilage from tibial plateau and femoral condyle were harvested from OA-affected patients. The cartilage was mixed and cut into 3-mm discs and 4-6 discs were placed in triplicate or quadruplicate, in a 24-well plate in 2.0 ml of Ham's F-12 medium supplemented with 0.2% endotoxin free human albumin, 10 mM Hepes pH 7.4 and antibiotics in the presence of various modulators, as previously described (Amin et al, 1995a; 1997a). CMT-8 was used at pharmacologically relevant concentrations in DMSO (<0.01% final concentration) as carrier. An equivalent amount of DMSO was also added in the control cultures.
(§4) The p value between control and CMT-8 treated values for PGE2≤0.1 (insignificant) whereas the p values between NMMA treated cartilage and CMT-8 treated cartilage was ≤0.001 (significant). The data are represented as mean±SD as examined by T test when n=3. Data represent±SD value as determined by Student's t test n=4. The P values described are compared with control unstimulated OA-cartilage. The data represents one of the two similar experiments. P values for PGE2 and Nitrite=^a≤0.5; ^b≤0.1; ^c≤0.05; ^d≤0.01.

[6] = tested on: OA-affected cartilage; test: Spontaneous nitrite/nitric oxide release by OA-affected cartilage (ex vivo organ culture); format: cell-based, human; conditions: for Effect on NO production: human OA-affected cartilage, words
Protocol: as §3, §4

[7] = tested on: TNFα; test: TNFα release in the medium by HEK 293 cells permanently transfected with human proTNFα (ELISA); format: cell-based; conditions: words; for Effect on spontaneous TNFα release: FIG. 8, 16 hours
Protocol: HEK 293 cells were transfected with the proTNFα cDNA (wild) to prepare a stable cell line. […] A mutant form of proTNFα cDNA which could not be cleaved by the endogenous TNFα convertase (TACE) to release soluble TNFα was also transfected in separate human HEK 293 cells. The soluble TNFα was estimated by ELISA from the wild type and mutant transfected cells from the medium (FIG. 6).
HEK 293 cells were grown as previously described by American Type Culture Collection (ATCC). […] The HEK 293 cells were incubated with CMT-3 to examine the effects of CMT-3 on TNFα release in the medium.
HEK 293 cells were grown under the conditions previously described by ATCC. Various compounds, including CMT-3 and doxycycline/minocyclines were incubated with proTNFα transfected HEK 293 cells releasing TNFα in the medium at 16 hours. […] Soluble TNFα was estimated by ELISA from the medium.

[8] = target: T1, COX-2 (Mus musculus, UniProt Q05769); test: COX-2 specific activity in cell-free extracts of LPS-stimulated RAW 264.7 cells (PGE2 by RIA); format: biochemical, murine
T1 construct: using total unfractionated cell extracts; endogenous in cells; host or cells: RAW 264.7 cells, LPS-induced; cell-free extract
T1 sequence (Q05769 18-604): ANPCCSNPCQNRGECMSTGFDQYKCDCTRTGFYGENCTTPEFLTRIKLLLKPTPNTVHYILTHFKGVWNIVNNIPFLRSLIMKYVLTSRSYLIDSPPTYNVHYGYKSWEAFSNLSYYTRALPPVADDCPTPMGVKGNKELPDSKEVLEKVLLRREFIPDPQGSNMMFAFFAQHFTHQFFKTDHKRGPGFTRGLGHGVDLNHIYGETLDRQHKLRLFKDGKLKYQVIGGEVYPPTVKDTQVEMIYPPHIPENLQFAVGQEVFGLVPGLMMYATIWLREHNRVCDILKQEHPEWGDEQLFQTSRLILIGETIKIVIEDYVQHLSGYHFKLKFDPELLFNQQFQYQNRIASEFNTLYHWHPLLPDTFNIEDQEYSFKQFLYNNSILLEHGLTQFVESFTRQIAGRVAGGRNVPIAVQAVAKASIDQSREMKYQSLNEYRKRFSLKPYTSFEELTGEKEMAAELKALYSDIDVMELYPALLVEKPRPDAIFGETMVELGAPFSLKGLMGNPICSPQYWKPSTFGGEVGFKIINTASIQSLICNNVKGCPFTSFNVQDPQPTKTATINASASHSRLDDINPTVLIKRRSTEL
Protocol: Raw 264.7 cells were stimulated with LPS and cell-free extracts were prepared as follows. RAW 264.7 cells were induced with LPS (100 ng/ml) in the presence or absence of tetracyclines or hydrocortisone for 14-20 hours. Following induction, the cells were pelleted at 4° C. and resuspended in Tris buffer: 10 mM, pH 7.4 containing 10 μg/ml each of chymostatin, antipain, leupeptin and pepstatin, 1 mM DDT and 1 mM PMSF. Cells were lysed in a Polytron PA 1200 homogenizer (Kinematica AG, Switzerland) with the cocktail of protease inhibitors after 3 cycles of rapid freeze-thawing. The lysate was centrifuged at 18,000 at 4° C. in an eppendorf centrifuge, and the resulting supernatant was used as cell-free extracts. The protein was measured by BCA assay reagent (Pierce, Rockford, Ill.) using BSA as standard. […] The specific enzyme activity was defined as ng of PGE2 released/mg protein/37° C. for 20 minutes.
RAW 264.7 cells were stimulated with 1 μg/ml of LPS for 16 hours and cell-free extracts were prepared as described above. The extracts were incubated with different modulators for 20 minutes at 37° C. before adding the substrate to initiate the enzyme reaction, which was terminated after 30 minutes by heat inactivation. The data represent one of the two experiments, the PGE2 analysis from each sample was done in triplicates n=3. The p value is a comparison between control and experimentals.

[9] = tested on: COX-2; test: COX-2 expression in cells/cartilage (general statement); format: cell-based; conditions: words
[10] = tested on: iNOS mRNA; conditions: Amin et al, 1997b; words; cited from earlier work
[11] = words; cited from earlier work
[12] = tested on: OA; conditions: prophylactic administration; Yu et al (1992); words; cited from earlier work
[13] = tested on: OA-affected cartilage; conditions: Amin et al, 1997a; words; cited from earlier work
[14] = tested on: OA-affected cartilage; conditions: Amin et al, 1997a; words; cited from earlier work; remark: listed apart in the source
[15] = tested on: NOS; conditions: background; words; cited from earlier work
[16] = tested on: arthritis; conditions: mild and moderate arthritis; Tilley et al, 1995; words; cited from earlier work

## C[C@H]1c2cccc(O)c2C(O)=C2C(=O)[C@]3(O)C(O)=C(C(N)=O)C(=O)C[C@@H]3[C@@H](O)[C@@H]21 [CMT-8, 6-α-deoxy-5-hydroxy-4-dedimethylaminotetracycline]
[1]; 16 h, 10 ug/mL
  PGE2 accumulation: 27.2 ± 3.4 ng/mL
[1]; Experiment II, LPS 100 ng/ml, compound 10 μg/ml, 16 hours
  PGE2 accumulation: 24.3 ± 4.5 ng/mL
[2]; Experiment I, compound 10 μg/ml
  Nitrite: 36.0 µM
[2]; Mus musculus, RAW264.7, 16 h, Experiment I, compound 10 μg/ml
  inhibition at 10 µg/mL: 28%
[3]
  Effect on PGE2 production: inhibit NO and PGE2 production
  Effect on L-NMMA induced PGE2 up-regulation: inhibits the L-NMMA induced PGE2 up-regulation
[4]
  Effect on NO production: inhibit NO and PGE2 production
[5]; Homo sapiens, Table 2, 5 μg/ml
  inhibition at 5 µg/mL: 58%
[5]; Table 2, 5 μg/ml
  PGE2: 94.7 ± 39.2 ng/mL
[5]
  Effect on PGE2 production: inhibits PGE2 in a dose dependent manner; also recorded: significantly inhibit; also recorded: inhibited both NO and PGE2 production; also recorded: inhibits COX-2 expression and PGE2 production
[6]; Homo sapiens, Table 2, 5 μg/ml
  inhibition at 5 µg/mL: 40%
[6]; Table 2, 5 μg/ml
  Nitrite: 47.0 ± 22.0 µM
[6]
  Effect on NO production: inhibits NOS and NO production; also recorded: significantly inhibit; also recorded: inhibited both NO and PGE2 production; also recorded: inhibiting NO production
[7]
  Effect on spontaneous TNFα release: inhibit the spontaneous TNFα release
[7]; HEK 293 cells transfected with proTNFα cDNA, low levels
  Inhibition of TNFα (summary statement): inhibiting TNFα
[8]; CMT-3 27 μM, CMT-8 27 μM, aspirin 56 μM, indomethacin 28 μM, words
  Effect on specific activity of COX-2: significantly inhibited the specific activity of COX-2
[8]; Table 3, cell-free extracts, 10 μg (aspirin amount not given)
  COX-2 Specific Activity: 4.3 ± 0.1 PGE2 ng/mg protein
[9]
  Effect on COX-2 expression: inhibits COX-2 expression and PGE2 production
[10]
  Effect on iNOS mRNA expression: inhibiting iNOS mRNA expression
[11]
  Antimicrobial activity: no antimicrobial activity

## C[C@H]1c2cccc(O)c2C(O)=C2C(=O)[C@]3(O)C(O)=C(C(N)=O)C(=O)[C@@H](N(C)C)[C@@H]3[C@@H](O)[C@@H]21 [Doxycycline, doxycycline, reference compound]
[5]
  Effect on PGE2 production: up-regulate COX-2 expression and PGE2 production
[6]
  Effect on NO production: inhibit NO production
[7]
  Effect on spontaneous TNFα release: inhibit TNFα release
[9]
  Effect on COX-2 expression: up-regulate COX-2 expression and PGE2 production
[12]
  Severity of OA: markedly reduced the severity of OA

## CN=C(N)NCCC[C@H](N)C(=O)O [L-NMMA, N^G -monomethyl-L-arginine acetate, reference compound]
[1]; FIG. 1, LPS 100 ng/ml, 16 hours, words
  Effect on PGE2 production: augments PGE2 production
[2]; FIG. 1, words
  Effect on NO production: blocks NO production
[3]
  Effect on PGE2 production: augments PGE2 production
[4]
  Effect on NO production: inhibits NO production
[13]
  Effect on PGE2 production: augments PGE2 production
[14]
  Effect on NOS and NO production: inhibits NOS and NO production
[15]
  Effect on PGE2 production: augmenting PGE2 production
  Effect on production of NO: inhibit the production of NO

## CN(C)c1ccc(O)c2c1C[C@H]1C[C@H]3[C@H](N(C)C)C(O)=C(C(N)=O)C(=O)[C@@]3(O)C(O)=C1C2=O [Minocycline, minocycline, reference compound]
[1]; Experiment I, LPS 100 ng/ml, minocycline 40 μg/ml, 16 hours
  PGE2 accumulation: 43.7 ± 8.6 ng/mL
[1]; Experiment II, LPS 100 ng/ml, minocycline 40 μg/ml, 16 hours
  PGE2 accumulation: 49.1 ± 10.0 ng/mL
[1]; read-out: PGE2 % (Increase), Experiment I, LPS 100 ng/ml, minocycline 40 μg/ml
  activation at 40 µg/mL: 172%
[1]; read-out: PGE2 % (Increase), Experiment II, LPS 100 ng/ml, minocycline 40 μg/ml
  activation at 40 µg/mL: 257%
[2]; Experiment I, minocycline 40 μg/ml
  Nitrite: 4.8 µM
[2]; Experiment II, minocycline 40 μg/ml
  Nitrite: 12.9 µM
[2]; Mus musculus, RAW264.7, 16 h, read-out: Nitrite % Inhibition, Experiment I, minocycline 40 μg/ml
  inhibition at 40 µg/mL: 90%
[2]; Mus musculus, RAW264.7, 16 h, read-out: Nitrite % Inhibition, Experiment II, minocycline 40 μg/ml
  inhibition at 40 µg/mL: 41%
[5]; Table 2, minocycline 10 μg/ml
  PGE2: 314.6 ± 58.4 ng/mL
[5]
  Effect on PGE2 production: stimulates PGE2 production
[5]; listed as minocycline
  Effect on PGE2 production: up-regulate COX-2 expression and PGE2 production
[6]; Homo sapiens, Table 2, minocycline 10 μg/ml
  inhibition at 10 µg/mL: 30%
[6]; Table 2, minocycline 10 μg/ml
  Nitrite: 66.0 ± 17.0 µM
[6]; listed as minocycline
  Effect on NO production: suppresses NO production; also recorded: inhibit NO production
[7]
  Effect on spontaneous TNFα release: inhibit TNFα release
[9]
  Effect on COX-2 expression: up-regulate COX-2 expression and PGE2 production
[16]
  Safety and efficacy in arthritis: safe and effective for patients with mild and moderate arthritis
